# Measured values from the supplement of paper PMC10307832.
# Tests used:
# Assay in all cases: relative viability (nuclei count vs DMSO), 5 days (fraction); higher = more cells survive
# [1] = compound: C1CNCCC1C2=CC(=NN2)C3=CC=NC=C3 + CS(=O)(=O)CCNCc1ccc(-c2ccc3ncnc(Nc4ccc(OCc5cccc(F)c5)c(Cl)c4)c3c2)o1 [Lapatinib] (partner 2 µM)
# Procedure, shortened: (§1)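 Lung cancer cell lines were pin-tool dosed in 1536-well plates on the day after seeding, with either a lone drug or a fixed anchor-drug dose plus five library-drug doses (not always all listed) in √10 steps. Nuclei were counted on 4× images after 5 days. Relative viability is the ratio of treated-well to vehicle-well nuclei counts, with each value a median of duplicate plates.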
# Tanzisertib + OSI-027 = compound: O[C@H]1CC[C@H](Nc2ncc3nc(Nc4c(F)cc(F)cc4F)n([C@H]4CCOC4)c3n2)CC1 [Tanzisertib] + COc1cccc2cc(-c3nc([C@H]4CC[C@H](C(=O)O)CC4)n4ncnc(N)c34)[nH]c12 [OSI-027] (partner 0.5 µM)
# Procedure, shortened: as §1
# [2] = compound: C1CNCCC1C2=CC(=NN2)C3=CC=NC=C3 + CCNC(=O)c1noc(-c2cc(C(C)C)c(O)cc2O)c1-c1ccc(CN2CCOCC2)cc1 [Luminespib] (partner 0.01 µM)
# Procedure, shortened: as §1
# [3] = compound: C[C@@H](N)c1ccc(C(=O)Nc2ccnc3[nH]ccc23)cc1 + CC1(C)CCC(c2ccc(Cl)cc2)=C(CN2CCN(c3ccc(C(=O)NS(=O)(=O)c4ccc(N[C@H](CCN5CCOCC5)CSc5ccccc5)c(S(=O)(=O)C(F)(F)F)c4)cc3)CC2)C1 [Navitoclax] (partner 0.5 µM)
# Procedure, shortened: as §1
Cell Line,relative viability ([1]; first compound 0.08 µM),relative viability ([1]; first compound 0.8 µM),relative viability ([1]; first compound 2.53 µM),relative viability ([1]; first compound 8 µM),relative viability (Tanzisertib + OSI-027; first compound 0.08 µM),relative viability (Tanzisertib + OSI-027; first compound 0.253 µM),relative viability (Tanzisertib + OSI-027; first compound 0.8 µM),relative viability (Tanzisertib + OSI-027; first compound 2.53 µM),relative viability (Tanzisertib + OSI-027; first compound 8 µM),relative viability ([2]; first compound 0.08 µM),relative viability ([2]; first compound 0.8 µM),relative viability ([2]; first compound 2.53 µM),relative viability ([2]; first compound 8 µM),relative viability ([3]; first compound 0.04 µM),relative viability ([3]; first compound 0.1265 µM),relative viability ([3]; first compound 0.4 µM),relative viability ([3]; first compound 4 µM),relative viability ([3]; first compound 1.265 µM)
NCI-H1944,0.76,0.775,0.819,0.801,0.4,0.393,0.426,0.389,0.338,0.665,0.691,0.81,0.693,1.05,1.01,1.06,0.876,–
NCI-H2023,0.615,0.909,1.03,0.974,0.483,0.418,0.394,0.347,0.35,0.709,0.878,0.867,0.832,1.09,1.02,1.08,0.799,1.07
NCI-H1755,1.03,0.973,1.07,1,0.747,0.77,0.676,0.706,0.517,0.301,–,0.417,0.64,1.04,0.985,0.962,0.622,0.933
NCI-H23,1.15,1.34,1.49,1.22,0.587,0.547,0.575,0.747,0.198,–,0.212,0.213,0.211,1.06,0.963,0.986,0.582,–
201T,0.975,0.978,0.994,0.986,0.632,0.854,0.673,0.713,0.501,1.03,1.04,1.13,1.01,1.15,1.1,1.16,1.37,1.2
NCI-H1734,0.856,1.07,1.15,1.07,0.758,0.581,0.588,0.723,0.586,0.183,0.201,0.195,0.219,0.943,0.82,0.81,0.443,–
NCI-H520,0.763,0.897,0.92,0.835,0.328,0.246,0.238,0.262,0.304,0.213,0.196,0.214,0.177,1.03,1.01,1.05,1.14,1.14
NCI-H1650,0.561,0.751,0.821,0.736,0.644,0.876,0.735,0.539,0.52,0.246,0.209,0.201,0.223,1.35,1.3,1.4,0.863,1.45
NCI-H1355,0.971,0.948,1,0.935,0.479,0.425,0.445,0.423,0.371,0.64,0.818,0.696,0.766,1.01,0.986,1.04,0.748,–
NCI-H1915,0.964,1.09,1.02,0.946,0.695,0.633,0.615,0.669,0.34,0.746,0.876,0.791,0.734,0.755,0.792,0.817,0.723,–
BEN,0.594,0.571,0.939,0.761,0.299,0.281,0.293,0.314,0.288,0.215,0.282,0.341,0.344,0.0518,0.0703,0.0684,0.122,0.0653
NCI-H3122,0.972,1.03,1.04,1.04,1.26,0.869,0.939,0.955,0.946,0.109,0.114,0.1,0.104,1.05,1.01,0.981,0.989,0.976
SK-MES-1,0.423,0.381,0.439,0.421,0.677,0.588,0.597,0.591,0.501,0.716,0.82,0.736,0.613,1.4,1.39,1.34,1.14,1.33
HOP-62,1.09,1.17,1.1,1.12,0.845,0.868,0.76,0.833,0.848,0.999,1.06,0.837,0.847,1.08,0.959,1.06,0.85,–
NCI-H2347,0.956,0.735,0.977,0.996,0.447,–,0.46,0.42,0.407,0.366,0.5,0.511,0.564,0.806,0.86,0.846,0.752,0.89
LXF-289,0.934,0.937,0.864,0.91,0.801,0.818,0.76,0.856,0.644,0.804,0.589,0.69,0.705,1.01,0.915,1.02,0.876,1.07
NCI-H1793,0.581,0.725,0.644,0.666,0.27,0.262,0.285,0.292,0.197,0.197,0.169,0.182,0.186,0.415,0.421,0.409,0.501,–
LU99A,0.974,1.18,1.28,1.1,0.305,0.316,0.296,0.29,0.302,0.3,0.235,0.248,0.252,0.834,0.851,0.967,0.798,0.839
